Source: ChEMBL document CHEMBL1201862, “PubChem BioAssay data set” (2004)
Calls of active or inactive are those of the source.

Experiments:
BJ [1] = test: cytotoxicity toward BJ-TERT fibroblasts, dose response, cell-based, RAS-independent, luminescence (AID 1933); assay type: functional; conditions: Homo sapiens
BJ [2] = test: cells; assay type: functional, cell-based; conditions: Homo sapiens
[3] = microbe, parasite or virus in culture; assay type: functional; conditions: Mycobacterium tuberculosis
BJ [4] = test: cytotoxicity toward BJ-TERT-LT-ST fibroblasts, dose response, cell-based, RAS-independent, luminescence (AID 1935); assay type: functional; conditions: Homo sapiens;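 also: BJ fibroblasts immortalized with TERT plus LT and ST oncogenes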
[5] = cytotoxicity toward DRD oncogenic fibroblasts, dose response, cell-based, non-viral oncogenic, luminescence (AID 1934); assay type: functional; conditions: Homo sapiens
[6] = target: DNA dC->dU-editing enzyme APOBEC-3A (Homo sapiens, UniProt P31941); test: Dose Response confirmation of small molecule APOBEC3A DNA Deaminase Inhibitors via a fluorescence-based single-stranded DNA deaminase assay. [Related pubchem assays (depositor defined):AID493011, AID493024]; assay type: functional
Sequence of DNA dC->dU-editing enzyme APOBEC-3A (P31941 whole entry): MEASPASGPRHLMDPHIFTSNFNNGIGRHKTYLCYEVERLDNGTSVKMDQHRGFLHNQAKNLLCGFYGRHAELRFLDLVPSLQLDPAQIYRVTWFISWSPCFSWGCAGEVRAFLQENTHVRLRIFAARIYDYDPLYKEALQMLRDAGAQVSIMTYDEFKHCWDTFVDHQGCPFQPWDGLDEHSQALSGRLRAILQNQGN

[7] = cytotoxicity in HEK-293T cells, dose response, cytotoxicity control for TCR NF-kB inhibitor project, luminescence, T-cell screen hits (AID 489026); assay type: functional, cell-based;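 also: cells exposed to compound about 14 hours before the viability readout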
[8] = target: FAD-linked sulfhydryl oxidase ALR (Homo sapiens, UniProt P55789); test: inhibitors of human ALR sulfhydryl oxidase, dose response, biochemical, H2O2 detection, luminescence, cherry-pick (AID 493248)
Sequence of FAD-linked sulfhydryl oxidase ALR (P55789 whole entry): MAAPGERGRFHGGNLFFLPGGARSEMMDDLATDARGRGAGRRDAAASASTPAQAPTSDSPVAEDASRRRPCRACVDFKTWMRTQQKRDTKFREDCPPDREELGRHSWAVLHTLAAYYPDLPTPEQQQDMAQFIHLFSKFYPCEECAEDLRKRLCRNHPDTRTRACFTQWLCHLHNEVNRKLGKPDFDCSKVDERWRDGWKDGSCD

[9] = target: DNA dC->dU-editing enzyme APOBEC-3G (Homo sapiens, UniProt Q9HC16); assay type: functional;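 also: Dose-response counterscreen measuring inhibition of APOBEC3G DNA deaminase activity, run while confirming APOBEC3A inhibitors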
Sequence of DNA dC->dU-editing enzyme APOBEC-3G (Q9HC16 whole entry): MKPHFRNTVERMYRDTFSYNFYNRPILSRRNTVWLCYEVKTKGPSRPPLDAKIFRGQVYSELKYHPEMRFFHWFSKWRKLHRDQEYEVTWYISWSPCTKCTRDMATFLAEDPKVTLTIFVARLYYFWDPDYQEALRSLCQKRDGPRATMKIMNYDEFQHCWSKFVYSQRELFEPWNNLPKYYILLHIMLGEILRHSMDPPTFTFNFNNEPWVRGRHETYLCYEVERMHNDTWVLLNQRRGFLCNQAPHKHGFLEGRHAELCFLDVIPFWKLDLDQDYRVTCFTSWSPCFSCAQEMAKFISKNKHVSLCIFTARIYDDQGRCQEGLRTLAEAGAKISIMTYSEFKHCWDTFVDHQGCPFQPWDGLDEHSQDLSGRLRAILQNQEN

T-cell = test: inhibitors of CD8+ T cell–vesicle binding, dose response, mouse 2C CD8+ T cells, flow cytometry (AID 485284); assay type: functional
Mu-type opioid receptor = Mu-type opioid receptor (Homo sapiens, UniProt P35372); test: SAR Analysis of Antagonists of the MOR Receptor using an Image-Based Assay - Set 3. [Related pubchem assays (depositor defined):AID1777, AID1785, AID1786, AID1966, AID2133, AID2136, AID2284, AID2285, AID2420]; assay type: functional
Sequence of Mu-type opioid receptor (P35372 whole entry): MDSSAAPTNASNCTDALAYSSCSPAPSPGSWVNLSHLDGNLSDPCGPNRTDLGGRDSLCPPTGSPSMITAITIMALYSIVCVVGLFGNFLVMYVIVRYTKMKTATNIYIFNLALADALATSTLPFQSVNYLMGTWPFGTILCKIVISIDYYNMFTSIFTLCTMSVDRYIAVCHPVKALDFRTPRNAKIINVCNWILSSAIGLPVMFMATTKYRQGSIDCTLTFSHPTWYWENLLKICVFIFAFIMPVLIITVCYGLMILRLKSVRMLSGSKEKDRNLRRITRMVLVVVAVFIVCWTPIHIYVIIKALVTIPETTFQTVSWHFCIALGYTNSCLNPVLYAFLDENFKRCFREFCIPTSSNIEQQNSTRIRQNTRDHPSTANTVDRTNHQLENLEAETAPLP

[10] = target: Delta-type opioid receptor (Homo sapiens, UniProt P41143); test: SAR Analysis of Antagonists of the DOR Receptor using an Image-Based Assay - Set 3. [Related pubchem assays (depositor defined):AID1777, AID1785]; assay type: functional;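 also: U2OS cells expressing DOR1 and beta-arrestin GFP stimulated with 100 nM SNC80; imaging of GFP-tagged beta-arrestin moving into spots after receptor activation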
Sequence of Delta-type opioid receptor (P41143 whole entry): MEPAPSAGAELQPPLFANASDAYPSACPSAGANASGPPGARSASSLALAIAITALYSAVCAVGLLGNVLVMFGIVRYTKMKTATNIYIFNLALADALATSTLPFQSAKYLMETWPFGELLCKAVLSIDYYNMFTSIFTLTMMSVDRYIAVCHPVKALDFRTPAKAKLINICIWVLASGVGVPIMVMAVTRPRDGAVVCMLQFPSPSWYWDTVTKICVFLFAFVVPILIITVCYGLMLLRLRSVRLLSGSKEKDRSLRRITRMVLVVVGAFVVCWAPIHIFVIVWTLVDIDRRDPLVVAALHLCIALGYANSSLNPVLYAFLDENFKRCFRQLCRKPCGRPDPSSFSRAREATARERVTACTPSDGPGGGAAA

[11] = target: T1, Kappa-type opioid receptor (Homo sapiens, UniProt P41145); test: SAR analysis of small molecule antagonists of the kappa opioid receptor via a luminescent beta-arrestin assay - Set 3. [Related pubchem assays (depositor defined):AID1777, AID1778, AID1785, AID1786, AID1966, AID2133, AID2136, AID2285, AID2495]; assay type: functional
T1 sequence (P41145 whole entry): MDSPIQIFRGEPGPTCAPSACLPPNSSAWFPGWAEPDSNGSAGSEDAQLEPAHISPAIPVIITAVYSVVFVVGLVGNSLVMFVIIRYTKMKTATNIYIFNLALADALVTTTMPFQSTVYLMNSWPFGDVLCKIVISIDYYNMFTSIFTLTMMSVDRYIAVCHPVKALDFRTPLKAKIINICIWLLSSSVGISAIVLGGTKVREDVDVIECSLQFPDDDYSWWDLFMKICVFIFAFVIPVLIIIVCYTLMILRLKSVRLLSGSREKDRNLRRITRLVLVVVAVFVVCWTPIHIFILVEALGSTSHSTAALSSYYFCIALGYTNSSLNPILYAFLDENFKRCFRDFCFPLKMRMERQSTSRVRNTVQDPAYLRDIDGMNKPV

[12] = target: T1, Kappa-type opioid receptor; test: SAR analysis of Antagonists of the Kappa Opioid Receptor (KOR) using an Image-Based Assay - Set 3. [Related pubchem assays (depositor defined):AID1777, AID1785]; assay type: functional
[13] = target: T2, Type-1 angiotensin II receptor (Homo sapiens, UniProt P30556); test: AT1 receptor agonists, dose response, selectivity assay for APJ receptor agonist project, cell-based, uHTS hits (AID 488865); assay type: functional;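 also: beta-arrestin recruitment to AT1 measured by enzyme fragment complementation luminescence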
T2 sequence (P30556 whole entry): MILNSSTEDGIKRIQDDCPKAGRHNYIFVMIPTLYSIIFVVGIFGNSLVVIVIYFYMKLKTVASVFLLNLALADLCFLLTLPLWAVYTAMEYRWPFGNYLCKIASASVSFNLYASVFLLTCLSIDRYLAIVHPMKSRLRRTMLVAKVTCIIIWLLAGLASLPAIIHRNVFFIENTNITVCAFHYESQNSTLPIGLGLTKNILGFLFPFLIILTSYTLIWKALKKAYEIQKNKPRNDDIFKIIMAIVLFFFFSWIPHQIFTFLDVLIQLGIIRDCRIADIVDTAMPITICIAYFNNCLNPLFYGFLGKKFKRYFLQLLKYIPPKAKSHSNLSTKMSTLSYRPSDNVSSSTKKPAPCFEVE

Coagulation factor XII = target: T3, Coagulation factor XII (Homo sapiens, UniProt P00748); test: FXIIa inhibitor potency, concentration-response, biochemical (AID 716); assay type: functional
T3 sequence (P00748 whole entry): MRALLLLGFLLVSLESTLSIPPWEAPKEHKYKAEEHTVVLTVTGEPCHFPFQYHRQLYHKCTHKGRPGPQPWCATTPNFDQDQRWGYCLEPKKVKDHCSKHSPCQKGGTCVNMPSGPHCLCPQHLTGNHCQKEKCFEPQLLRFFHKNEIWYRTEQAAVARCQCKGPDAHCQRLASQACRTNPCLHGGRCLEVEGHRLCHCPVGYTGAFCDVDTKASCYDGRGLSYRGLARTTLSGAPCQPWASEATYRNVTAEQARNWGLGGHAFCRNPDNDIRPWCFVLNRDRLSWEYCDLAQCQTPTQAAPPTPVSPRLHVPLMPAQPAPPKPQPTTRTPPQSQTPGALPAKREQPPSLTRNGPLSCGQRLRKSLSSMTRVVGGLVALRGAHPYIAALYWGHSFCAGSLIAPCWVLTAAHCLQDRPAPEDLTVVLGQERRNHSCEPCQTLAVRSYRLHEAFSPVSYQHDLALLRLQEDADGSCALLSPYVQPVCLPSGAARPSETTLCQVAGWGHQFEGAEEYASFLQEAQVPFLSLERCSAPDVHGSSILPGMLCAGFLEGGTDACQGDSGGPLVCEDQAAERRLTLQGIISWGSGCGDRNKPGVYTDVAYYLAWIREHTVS

Protein skinhead-1 = target: T4, Protein skinhead-1 (Caenorhabditis elegans, UniProt P34707); assay type: functional
T4 sequence (P34707 whole entry): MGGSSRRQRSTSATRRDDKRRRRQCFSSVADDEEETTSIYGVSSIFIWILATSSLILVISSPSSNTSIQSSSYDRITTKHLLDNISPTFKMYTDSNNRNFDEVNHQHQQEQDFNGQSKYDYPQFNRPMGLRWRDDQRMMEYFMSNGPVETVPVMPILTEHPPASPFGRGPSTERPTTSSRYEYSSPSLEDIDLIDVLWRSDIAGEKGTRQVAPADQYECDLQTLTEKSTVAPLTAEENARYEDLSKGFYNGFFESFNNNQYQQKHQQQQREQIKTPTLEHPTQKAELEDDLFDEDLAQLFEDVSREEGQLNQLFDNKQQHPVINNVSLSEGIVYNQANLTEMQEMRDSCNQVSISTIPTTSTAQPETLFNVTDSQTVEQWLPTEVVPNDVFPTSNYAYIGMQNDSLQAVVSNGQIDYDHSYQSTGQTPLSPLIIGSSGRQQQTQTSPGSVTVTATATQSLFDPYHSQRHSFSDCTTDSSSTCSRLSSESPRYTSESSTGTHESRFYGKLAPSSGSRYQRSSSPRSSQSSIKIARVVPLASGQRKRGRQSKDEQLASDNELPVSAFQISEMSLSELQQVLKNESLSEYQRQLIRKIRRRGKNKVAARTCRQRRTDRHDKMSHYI

[14] = target: T5, Tyrosine-protein phosphatase non-receptor type 7 (Homo sapiens, UniProt P35236); test: SAR analysis of chemical inhibitors of HePTP using a Fluorescent assay - Set 2. [Related pubchem assays (depositor defined):AID1059, AID1077, AID1661, AID2085, AID521]; assay type: functional
T5 sequence (P35236 whole entry): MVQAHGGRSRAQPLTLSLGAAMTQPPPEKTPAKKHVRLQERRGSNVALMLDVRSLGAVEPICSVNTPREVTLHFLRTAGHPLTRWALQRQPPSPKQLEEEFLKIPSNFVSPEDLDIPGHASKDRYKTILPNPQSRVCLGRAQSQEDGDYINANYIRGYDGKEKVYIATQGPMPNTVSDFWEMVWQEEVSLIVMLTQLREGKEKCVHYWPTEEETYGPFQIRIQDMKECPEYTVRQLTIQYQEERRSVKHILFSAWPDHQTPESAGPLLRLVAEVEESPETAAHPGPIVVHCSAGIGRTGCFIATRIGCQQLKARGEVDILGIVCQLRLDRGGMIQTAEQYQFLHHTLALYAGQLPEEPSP

[15] = target: Dual specificity protein phosphatase 3 (Homo sapiens, UniProt P51452); test: SAR VHR1 Fluorescent Assay for In Vitro dose response studies Set 2. [Related pubchem assays (depositor defined):AID1654, AID1661, AID1878]; assay type: functional
Sequence of Dual specificity protein phosphatase 3 (P51452 whole entry): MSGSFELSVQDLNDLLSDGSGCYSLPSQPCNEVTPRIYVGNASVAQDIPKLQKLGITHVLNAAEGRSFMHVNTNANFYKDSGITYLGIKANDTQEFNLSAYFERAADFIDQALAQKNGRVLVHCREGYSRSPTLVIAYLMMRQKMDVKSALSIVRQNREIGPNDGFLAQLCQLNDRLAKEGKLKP

[16] = system: Streptococcus sp. 'group A'; test: growth inhibition of control SK(-) GAS strain, dose response, counter-screen for streptokinase expression inhibitor project, luminescence, kanamycin, BacTiterGlo, confirmation (AID 1900); assay type: functional, organism-based
Streptokinase A = target: T6, Streptokinase A (Streptococcus pyogenes serotype M1, UniProt P10520); test: S. pyogenes streptokinase expression inhibitors, potency, dose response, plasminogen activation absorbance, OD405 (AID 1914); assay type: functional, Streptococcus pyogenes M1 GAS;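 also: secreted streptokinase activity via plasminogen activation per viability signal from cell pellet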
T6 sequence (P10520 whole entry): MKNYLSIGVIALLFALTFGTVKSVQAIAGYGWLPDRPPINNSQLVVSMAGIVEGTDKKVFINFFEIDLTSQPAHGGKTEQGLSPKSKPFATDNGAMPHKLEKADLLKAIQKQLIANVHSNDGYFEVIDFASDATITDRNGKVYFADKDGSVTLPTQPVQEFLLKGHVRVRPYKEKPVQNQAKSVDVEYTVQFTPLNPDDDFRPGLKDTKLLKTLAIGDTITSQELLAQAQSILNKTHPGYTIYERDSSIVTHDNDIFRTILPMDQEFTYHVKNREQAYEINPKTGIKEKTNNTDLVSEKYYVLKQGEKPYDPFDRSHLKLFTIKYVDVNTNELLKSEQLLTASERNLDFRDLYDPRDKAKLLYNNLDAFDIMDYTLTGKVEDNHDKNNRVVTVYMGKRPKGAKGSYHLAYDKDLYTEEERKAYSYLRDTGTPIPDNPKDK

Streptococcus = test: Group A Streptococcus viability loss, dose response, counter-screen for streptokinase expression inhibitor project, luminescence, BacTiterGlo (AID 1915); assay type: functional, organism-based;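 also: potency for reduction of bacterial viability or growth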
[17] = target: T7, Short transient receptor potential channel 4 (Mus musculus, UniProt Q9QUQ5); test: TRPC4 positive allosteric modulators, dose response, cell-based, HEK293 TRPC4/mu-opioid, Fluo-4 calcium, EC20 DAMGO (AID 434941); assay type: functional
T7 sequence (Q9QUQ5 whole entry): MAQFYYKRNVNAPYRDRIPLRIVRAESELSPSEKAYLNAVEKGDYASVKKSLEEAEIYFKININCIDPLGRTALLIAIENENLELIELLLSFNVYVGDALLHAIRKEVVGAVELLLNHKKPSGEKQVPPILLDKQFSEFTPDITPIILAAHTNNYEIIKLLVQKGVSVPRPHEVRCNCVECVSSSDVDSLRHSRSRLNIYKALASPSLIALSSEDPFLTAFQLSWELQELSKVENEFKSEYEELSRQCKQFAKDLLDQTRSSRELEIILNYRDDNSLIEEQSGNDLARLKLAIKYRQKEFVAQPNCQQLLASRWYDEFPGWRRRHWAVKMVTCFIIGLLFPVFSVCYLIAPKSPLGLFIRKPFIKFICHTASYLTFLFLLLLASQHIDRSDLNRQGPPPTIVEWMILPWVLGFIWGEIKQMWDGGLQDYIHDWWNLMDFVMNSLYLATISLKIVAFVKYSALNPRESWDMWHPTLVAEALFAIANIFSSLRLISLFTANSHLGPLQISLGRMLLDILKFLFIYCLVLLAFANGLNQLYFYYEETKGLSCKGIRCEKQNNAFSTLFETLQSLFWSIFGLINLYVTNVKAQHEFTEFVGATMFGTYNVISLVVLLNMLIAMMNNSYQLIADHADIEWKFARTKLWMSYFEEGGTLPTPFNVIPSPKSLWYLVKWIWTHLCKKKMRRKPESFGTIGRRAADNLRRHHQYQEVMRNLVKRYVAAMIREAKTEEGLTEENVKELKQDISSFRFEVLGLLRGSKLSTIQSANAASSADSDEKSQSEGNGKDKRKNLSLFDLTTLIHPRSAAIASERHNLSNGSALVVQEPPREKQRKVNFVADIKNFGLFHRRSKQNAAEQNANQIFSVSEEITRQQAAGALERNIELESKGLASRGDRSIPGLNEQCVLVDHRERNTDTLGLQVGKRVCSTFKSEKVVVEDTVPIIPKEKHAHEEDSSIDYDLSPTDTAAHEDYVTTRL

[18] = target: T7, Short transient receptor potential channel 4; test: mouse TRPC4 channel activators, dose response, cell-based, HEK293 TRPC4/mu-opioid, Fluo-4 calcium (AID 434937); assay type: functional

## CC(C)CC[n+]1ccccc1C=Cc1ccc(N(C)C)cc1
BJ [1]
  EC50: 3.6 µM (active)
BJ [2]
  EC50: 15.5 µM (active)
[3]
  CC50: > 40 µM (active)
BJ [4]
  EC50: > 150 µM (inconclusive)
[5]
  EC50: 22.8 µM (inconclusive)
[6]
  IC50: 6.84 µM (active)
[7]
  IC50: > 80 µM (inactive)
[8]
  AC50: 1.36 µM (active)
[9]
  IC50: 19.3 µM (active)

## O=C(Cn1cc(C(F)(F)F)cc(Cl)c1=O)NCCc1ccc(Cl)cc1Cl
T-cell
  EC50: 7.63 µM (active)

## Cc1ccc(S(=O)(=O)NCc2ccc(C(=O)NCCN(Cc3ccccc3)Cc3ccccc3)cc2)cc1
Mu-type opioid receptor
  IC50: > 32 µM (inactive)
[10]
  IC50: > 32 µM (inactive)
[11]
  IC50: 16.2 µM (inactive)
[12]
  IC50: 7.47 µM (active)

## CC1(OC(=O)C2CCCC2)C(=O)C=C2C=C(c3ccsc3)N(C3CCCC3)C=C2C1=O (stereo not given)
[13]
  EC50: > 100 µM (inactive)

## CCC(c1nnnn1Cc1ccc2c(c1)OCO2)N1CCN(c2ccc(F)cc2)CC1 (stereo not given)
Coagulation factor XII
  IC50: > 50 µM (inactive)
Protein skinhead-1
  IC50: > 100 µM (inactive)

## C=CCn1c(N)c(C(=O)N2CCN(C)CC2)sc1=S
[14]
  IC50: 77.7 µM (active)
[15]
  IC50: 61.2 µM (active)

## COc1cc(/C=C2/SC(=S)N(Cc3ccccc3)C2=O)cc(Cl)c1O
[16]
  EC50: 5.2 µM (active)
Streptokinase A
  EC50: > 150 µM (not active)
Streptococcus
  EC50: 5.86 µM (active)
[17]
  EC50: 1.5 µM (active)
[18]
  EC50: 5.31 µM (active)
Protein skinhead-1
  IC50: > 100 µM (inactive)
